We go through 14 compounds from ChEMBL document CHEMBL4266003, “New Dopamine D3-Selective Receptor Ligands Containing a 6-Methoxy-1,2,3,4-tetrahydroisoquinolin-7-ol Motif” (ACS Med Chem Lett, 2018).

Test [1] concerns the target T1, D(1A) dopamine receptor (Homo sapiens, UniProt P21728). The test is described as follows: Displacement of [3H]SCH23390 from human dopamine D1 receptor expressed in HEKT cell membranes. In general terms: Loss of bound radioactivity is the signal in a displacement assay; it reports binding, not function.
In test [2] the target is T2, D(2) dopamine receptor (Homo sapiens, UniProt P14416). Briefly: Displacement of [3H]N-Methylspiperone from human dopamine D2 receptor expressed in fibroblasts.
T2 sequence (P14416 whole entry): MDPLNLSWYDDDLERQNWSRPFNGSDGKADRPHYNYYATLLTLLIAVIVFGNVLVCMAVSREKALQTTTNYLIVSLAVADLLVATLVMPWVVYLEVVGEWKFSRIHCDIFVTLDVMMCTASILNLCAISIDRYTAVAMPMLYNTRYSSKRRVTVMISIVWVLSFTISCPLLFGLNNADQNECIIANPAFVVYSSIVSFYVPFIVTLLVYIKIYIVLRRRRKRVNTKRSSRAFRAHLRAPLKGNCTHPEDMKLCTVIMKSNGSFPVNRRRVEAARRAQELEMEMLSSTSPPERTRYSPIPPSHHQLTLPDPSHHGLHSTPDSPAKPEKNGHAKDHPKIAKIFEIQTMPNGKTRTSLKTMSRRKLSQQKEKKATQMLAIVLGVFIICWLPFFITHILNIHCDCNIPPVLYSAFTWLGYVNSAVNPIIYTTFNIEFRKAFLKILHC
In test [3] the target is T3, D(3) dopamine receptor (Homo sapiens, UniProt P35462). Briefly: Displacement of [3H]N-Methylspiperone from human dopamine D3 receptor expressed in HEKT cell membranes.
T3 sequence (P35462 whole entry): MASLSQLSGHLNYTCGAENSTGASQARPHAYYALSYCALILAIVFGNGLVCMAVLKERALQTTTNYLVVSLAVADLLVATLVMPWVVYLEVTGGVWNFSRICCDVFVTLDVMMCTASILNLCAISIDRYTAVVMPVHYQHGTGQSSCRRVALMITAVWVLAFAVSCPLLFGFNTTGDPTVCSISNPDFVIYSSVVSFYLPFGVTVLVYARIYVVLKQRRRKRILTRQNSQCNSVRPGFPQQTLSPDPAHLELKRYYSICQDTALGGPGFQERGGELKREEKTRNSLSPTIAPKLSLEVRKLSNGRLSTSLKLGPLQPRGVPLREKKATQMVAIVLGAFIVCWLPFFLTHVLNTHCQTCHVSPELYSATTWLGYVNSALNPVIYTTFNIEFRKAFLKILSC
Test [4] addresses T4, D(4) dopamine receptor (Homo sapiens, UniProt P21917).
T4 sequence (P21917 whole entry): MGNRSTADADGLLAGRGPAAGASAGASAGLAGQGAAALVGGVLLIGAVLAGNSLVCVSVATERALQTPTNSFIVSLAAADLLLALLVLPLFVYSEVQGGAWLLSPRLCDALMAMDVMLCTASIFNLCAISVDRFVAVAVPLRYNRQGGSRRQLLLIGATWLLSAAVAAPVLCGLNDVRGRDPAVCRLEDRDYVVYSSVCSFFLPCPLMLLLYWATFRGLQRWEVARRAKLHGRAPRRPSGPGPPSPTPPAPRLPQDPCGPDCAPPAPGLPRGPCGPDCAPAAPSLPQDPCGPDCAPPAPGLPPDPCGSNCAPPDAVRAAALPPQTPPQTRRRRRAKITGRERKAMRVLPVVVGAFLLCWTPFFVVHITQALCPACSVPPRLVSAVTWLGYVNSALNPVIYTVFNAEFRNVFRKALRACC
The test is described as follows: Displacement of [3H]N-Methylspiperone from human dopamine D4 receptor expressed in HEK cell membranes.

The species entered for test [5] is Homo sapiens. Briefly: Selectivity ratio of Ki for human dopamine D1 receptor expressed in HEKT cell membranes to Ki for human dopamine D3 receptor expressed in HEKT cell membranes. The class given is cell-based.
Test [6] is filed under the species Homo sapiens. Briefly: Selectivity ratio of Ki for human dopamine D2 receptor expressed in fibroblasts to Ki for human dopamine D3 receptor expressed in HEKT cell membranes. The class given is cell-based.
For test [7], the target named is T2, D(2) dopamine receptor. Briefly: Inhibition of human dopamine D2 receptor expressed in HEKT cell membranes at 10 uM relative to control. In kind it is cell-based.
Test [8] has as its target T1, D(1A) dopamine receptor. Briefly: Inhibition of human dopamine D1 receptor expressed in HEKT cell membranes at 10 uM relative to control. The class given is cell-based.
The target of test [9] is T5, D(4) dopamine receptor (Homo sapiens) (UniProt P21917).
T5 sequence (whole entry): T4 sequence (P21917 whole entry)
Briefly: Inhibition of human dopamine D4 receptor expressed in HEKT cell membranes at 10 uM relative to control. The class given is cell-based.

Test [10] addresses T3, D(3) dopamine receptor. The test is described as follows: Agonist activity at human dopamine D3 receptor assessed as beta-arrestin recruitment by Tango assay. In kind it is functional.
Test [11] addresses T3, D(3) dopamine receptor. Briefly: Antagonist activity at human dopamine D3 receptor assessed as inhibition of beta-arrestin recruitment by Tango assay. The class given is functional.

Usually Ki stands for the dissociation constant of the complex between target and ligand, obtained from inhibition or displacement. A lower Ki goes with higher affinity. The inhibition is the share of the control response that was lost under treatment. A high value points to a strong effect. What is called EC50 is the midpoint of the concentration-response curve.

Each structure is given as a SMILES string. Active and inactive are the calls of the source. The calls are words filed in the database; no cut-off is given here.

T1 sequence (P21728 whole entry): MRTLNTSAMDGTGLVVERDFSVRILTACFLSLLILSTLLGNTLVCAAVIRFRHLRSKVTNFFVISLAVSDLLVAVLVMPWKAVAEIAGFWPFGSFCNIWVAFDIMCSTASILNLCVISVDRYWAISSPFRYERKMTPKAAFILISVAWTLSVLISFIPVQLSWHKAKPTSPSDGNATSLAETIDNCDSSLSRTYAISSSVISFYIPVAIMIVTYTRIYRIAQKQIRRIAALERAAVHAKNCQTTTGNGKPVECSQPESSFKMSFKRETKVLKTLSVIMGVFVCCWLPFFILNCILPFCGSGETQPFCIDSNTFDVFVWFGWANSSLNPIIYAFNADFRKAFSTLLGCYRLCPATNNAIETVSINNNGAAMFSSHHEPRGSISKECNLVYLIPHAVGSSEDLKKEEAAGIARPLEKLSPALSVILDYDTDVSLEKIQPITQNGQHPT

As for `COc1cc2c(cc1O)CN(CCCCNC(=O)c1ccc3ccccc3c1)CC2`, the Ki in test [1] was found to be 800 nM; in test [2], 700 nM; in [3], 2.7 nM; in test [4], 170 nM. In addition, the Ratio Ki in test [5] came to 296; in [6], 260.

As for `COc1cc2c(cc1O)CN(CCCCNC(=O)c1ccc(I)cc1)CC2`, the inhibitory constant (Ki) amounted to 1600 nM in [1], 10 nM in test [3] and 1500 nM in test [4]. The Ratio Ki in [5] was 160. This compound also gave an inhibition in test [7] of less than 50%.

Turning to `COc1cc2c(cc1O)CN(CCCCNC(=O)c1ccnc3ccccc13)CC2`, the Ki was determined as 1810 nM in [1], 22 nM in test [3] and 410 nM in [4]. For the same compound, the Ratio Ki in test [5] was determined as 82. Besides, in test [7], the inhibition is less than 50%.

With `COc1cc2c(cc1OC)CN(CCCCNC(=O)c1ccc(C#N)cc1)CC2`, the Ki in test [3] turned out to be 410 nM. Also, the inhibition in test [8], in [7] and in [9] was less than 50% in each case.

In the case of `COc1cccc(C(=O)NCCCCN2CCc3cc(OC)c(O)cc3C2)c1`, the Ki turned out to be 12 nM in test [3] and 150 nM in test [4]. For the same compound, the inhibition in [8] and in test [7] was less than 50% throughout.

Take `COc1cc2c(cc1O)CN(CCCCNC(=O)c1ccc(-c3ccccc3)cc1)CC2`: the Ki in [1] turned out to be 800 nM; in [2], 800 nM; in [3], 2.7 nM; in [4], 720 nM. Also, the Ratio Ki in test [5] and in test [6] was 296 each time.

`COc1cc2c(cc1O)CN(CCCCNC(=O)c1ccncc1)CC2`: the Ki in test [3] is 24 nM; in test [4], 1400 nM. Moreover, the inhibition in test [8] and in test [7] was less than 50% each time.

On to `COc1cc2c(cc1O)CN(CCCCNC(=O)c1ccc(C(N)=O)cc1)CC2`, for which the Ki in test [2] was 860 nM; in test [3], 28 nM. In addition, in test [6], the Ratio Ki was 31. Moreover, the inhibition in test [8] and in test [9] was less than 50% each time.

On to `COc1cc2c(cc1O)CN(CCCCNC(=O)c1ccc(C#N)cc1)CC2`, for which the affinity in test [3], expressed as Ki, was 6.3 nM. Further, the inhibition in test [8], in test [7] and in test [9] was less than 50% in each case. Also, in [10], the result was inactive. In test [11], the EC50 came to 1400 nM.

For the compound `COc1cc2c(cc1O)CN(CCCCNC(=O)c1ccc(Br)cc1)CC2`, the Ki in test [1] was 500 nM; in test [2], more than 10000 nM; in [3], 3.4 nM; in test [4], 350 nM. Further, the Ratio Ki in test [5] was 147; in test [6], more than 2940.

For the compound `COc1cc2c(cc1O)CN(CCCCNC(=O)c1ccc(Cl)cc1)CC2`, the Ki is 680 nM in [1], 1100 nM in test [2], 2.1 nM in test [3] and 140 nM in test [4]. For the same compound, the figures for the Ratio Ki in [5] and in test [6] were 323 and 524, respectively.

Turning to `COc1cc2c(cc1O)CN(CCCCNC(=O)c1ccc(F)cc1)CC2`, the Ki stood at 4.4 nM in test [3] and 95 nM in test [4]. For the same compound, the inhibition in test [8] and in test [7] was less than 50% in each case. In test [10], the outcome was inactive. Further, in test [11], the EC50 stood at 490 nM.

For `COc1cc2c(cc1O)CN(CCCCNC(=O)c1ccc(O)cc1)CC2`, the Ki in test [3] stood at 8.7 nM; in [4] it was 660 nM. Moreover, the inhibition in test [8] and in test [7] was less than 50% each time. Also, the outcome in test [10] was inactive. The EC50 in test [11] was determined as 420 nM.

Consider `COc1ccc(C(=O)NCCCCN2CCc3cc(OC)c(O)cc3C2)cc1`, for which the Ki in test [3] came out at 5.9 nM; in test [4] it was 560 nM. Moreover, the inhibition in test [8] and in [7] was less than 50% in each case. Besides, the outcome in [10] was inactive. The concentration giving a half-maximal response (EC50) in test [11] was determined as 360 nM.
